Measurements as given in ChEMBL document CHEMBL3885861, “Open TG-GATES”.

Species: Rattus norvegicus
Assay: Open TG-GATES - Regimen: Single
Format: toxicity, organism-based, Sprague-Dawley
Design: regimen Single, gender Male, age 6 weeks
Settings: in vivo, po, 300 mg/kg, route gavage, dose level Middle; for APTT / Bas / Eos / Fbg / Hb / Ht / Lym / MCH / MCHC / MCV / Mono / Neu / PT / Plat / RBC / Ret / WBC: tissue Blood; for KIDNEY_L / KIDNEY_R / KIDNEY_TOTAL: tissue Kidney; for LIVER: tissue Liver; for A/G / ALP / ALT / AST / BUN / CRE / Ca / Cl / DBIL / GLC / IP / K / LDH / Na / PL / RALB / TBIL / TC / TG / TP / gamma-GTP: tissue Plasma

SMILES: CN(C)[C@@H]1C(O)=C(C(N)=O)C(=O)[C@@]2(O)C(O)=C3C(=O)c4c(O)cccc4[C@@](C)(O)[C@H]3C[C@@H]12 [TETRACYCLINE]
- TERMINAL_BW (3 h): 186.7 g
- APTT (3 h): 16.4 s
- Bas (3 h): 0%
- Eos (3 h): 0.6%
- Fbg (3 h): 198 mg/dL
- Hb (3 h): 13.6 g/dL
- Ht (3 h): 41%
- Lym (3 h): 76.4%
- MCH (3 h): 21.9 pg
- MCHC (3 h): 33.1%
- MCV (3 h): 66.2 fL
- Mono (3 h): 8.4%
- Neu (3 h): 14.8%
- PT (3 h): 12.3 s
- Plat (3 h): 97.2 x10_4/uL
- RBC (3 h): 619.2 x10_4/ul
- Ret (3 h): 10%
- WBC (3 h): 122.2 x10_2/uL
- KIDNEY_L (3 h): 0.9 g
- KIDNEY_R (3 h): 0.9 g
- KIDNEY_TOTAL (3 h): 1.8 g
- LIVER (3 h): 9 g
- A/G (3 h): 1.9
- ALP (3 h): 940.2 IU/L
- ALT (3 h): 42.2 IU/L
- AST (3 h): 74.4 IU/L
- BUN (3 h): 13.2 mg/dL
- CRE (3 h): 0.5 mg/dL
- Ca (3 h): 10.9 mg/dL
- Cl (3 h): 104.6 meq/L
- DBIL (3 h): 0.026 mg/dL
- GLC (3 h): 179.6 mg/dL
- IP (3 h): 11.5 mg/dL
- K (3 h): 5.4 meq/L
- LDH (3 h): 103 IU/L
- Na (3 h): 137.2 meq/L
- PL (3 h): 129.6 mg/dL
- RALB (3 h): 3.6 g/dL
- TBIL (3 h): 0.4 mg/dL
- TC (3 h): 71.4 mg/dL
- TG (3 h): 39.4 mg/dL
- TP (3 h): 5.5 g/dL
- gamma-GTP (3 h): 1.6 IU/L
- TERMINAL_BW (6 h): 183.9 g
- APTT (6 h): 17.1 s
- Bas (6 h): 0%
- Eos (6 h): 0.6%
- Fbg (6 h): 206.8 mg/dL
- Hb (6 h): 13.4 g/dL
- Ht (6 h): 40.3%
- Lym (6 h): 78.6%
- MCH (6 h): 22.5 pg
- MCHC (6 h): 33.3%
- MCV (6 h): 67.7 fL
- Mono (6 h): 5.6%
- Neu (6 h): 15.4%
- PT (6 h): 12.1 s
- Plat (6 h): 103.8 x10_4/uL
- RBC (6 h): 595.2 x10_4/ul
- Ret (6 h): 10.1%
- WBC (6 h): 91.7 x10_2/uL
- KIDNEY_L (6 h): 0.9 g
- KIDNEY_R (6 h): 0.9 g
- KIDNEY_TOTAL (6 h): 1.7 g
- LIVER (6 h): 8.3 g
- A/G (6 h): 2.1
- ALP (6 h): 930.4 IU/L
- ALT (6 h): 36.4 IU/L
- AST (6 h): 72.4 IU/L
- BUN (6 h): 12.4 mg/dL
- CRE (6 h): 0.4 mg/dL
- Ca (6 h): 10.7 mg/dL
- Cl (6 h): 106 meq/L
- DBIL (6 h): 0.012 mg/dL
- GLC (6 h): 193.8 mg/dL
- IP (6 h): 11.1 mg/dL
- K (6 h): 5.2 meq/L
- LDH (6 h): 104.4 IU/L
- Na (6 h): 137.2 meq/L
- PL (6 h): 130.6 mg/dL
- RALB (6 h): 3.6 g/dL
- TBIL (6 h): 0.4 mg/dL
- TC (6 h): 72.8 mg/dL
- TG (6 h): 49.4 mg/dL
- TP (6 h): 5.4 g/dL
- gamma-GTP (6 h): 1.4 IU/L
- TERMINAL_BW (9 h): 180.6 g
- APTT (9 h): 16.6 s
- Bas (9 h): 0%
- Eos (9 h): 0.6%
- Fbg (9 h): 211 mg/dL
- Hb (9 h): 13.1 g/dL
- Ht (9 h): 39.7%
- Lym (9 h): 79.6%
- MCH (9 h): 21.7 pg
- MCHC (9 h): 33.1%
- MCV (9 h): 65.7 fL
- Mono (9 h): 7.6%
- Neu (9 h): 12.4%
- PT (9 h): 12.3 s
- Plat (9 h): 102.2 x10_4/uL
- RBC (9 h): 603.4 x10_4/ul
- Ret (9 h): 9.1%
- WBC (9 h): 101.6 x10_2/uL
- KIDNEY_L (9 h): 0.8 g
- KIDNEY_R (9 h): 0.8 g
- KIDNEY_TOTAL (9 h): 1.7 g
- LIVER (9 h): 7.5 g
- A/G (9 h): 2.4
- ALP (9 h): 849.2 IU/L
- ALT (9 h): 37 IU/L
- AST (9 h): 71.2 IU/L
- BUN (9 h): 13.4 mg/dL
- CRE (9 h): 0.4 mg/dL
- Ca (9 h): 10.6 mg/dL
- Cl (9 h): 106.2 meq/L
- DBIL (9 h): 0.036 mg/dL
- GLC (9 h): 182.8 mg/dL
- IP (9 h): 10.4 mg/dL
- K (9 h): 4.7 meq/L
- LDH (9 h): 92.6 IU/L
- Na (9 h): 138.4 meq/L
- PL (9 h): 126.8 mg/dL
- RALB (9 h): 3.8 g/dL
- TBIL (9 h): 0.4 mg/dL
- TC (9 h): 75.6 mg/dL
- TG (9 h): 24.6 mg/dL
- TP (9 h): 5.4 g/dL
- gamma-GTP (9 h): 2.2 IU/L
- TERMINAL_BW (24 h): 200.3 g
- APTT (24 h): 15.9 s
- Bas (24 h): 0%
- Eos (24 h): 0.8%
- Fbg (24 h): 202.8 mg/dL
- Hb (24 h): 13 g/dL
- Ht (24 h): 39.3%
- Lym (24 h): 83.6%
- MCH (24 h): 21.6 pg
- MCHC (24 h): 33.2%
- MCV (24 h): 65 fL
- Mono (24 h): 8.2%
- Neu (24 h): 7.4%
- PT (24 h): 12.1 s
- Plat (24 h): 117.3 x10_4/uL
- RBC (24 h): 605 x10_4/ul
- Ret (24 h): 9.9%
- WBC (24 h): 102.9 x10_2/uL
- KIDNEY_L (24 h): 0.9 g
- KIDNEY_R (24 h): 0.9 g
- KIDNEY_TOTAL (24 h): 1.9 g
- LIVER (24 h): 8.5 g
- A/G (24 h): 2.2
- ALP (24 h): 1031.8 IU/L
- ALT (24 h): 41.6 IU/L
- AST (24 h): 73.8 IU/L
- BUN (24 h): 18.4 mg/dL
- CRE (24 h): 0.5 mg/dL
- Ca (24 h): 11.3 mg/dL
- Cl (24 h): 105 meq/L
- DBIL (24 h): 0.016 mg/dL
- GLC (24 h): 184.4 mg/dL
- IP (24 h): 9.9 mg/dL
- K (24 h): 5 meq/L
- LDH (24 h): 96.8 IU/L
- Na (24 h): 141 meq/L
- PL (24 h): 149.2 mg/dL
- RALB (24 h): 3.8 g/dL
- TBIL (24 h): 0.4 mg/dL
- TC (24 h): 80.8 mg/dL
- TG (24 h): 57.2 mg/dL
- TP (24 h): 5.6 g/dL
- gamma-GTP (24 h): 1.4 IU/L
